Test results from US20240018146A1, “COMPOSITIONS AND METHODS OF USING THE SAME FOR TREATMENT OF NEURODEGENERATIVE AND MITOCHONDRIAL DISEASE” (MITOKININ, INC., priority 2020, published 2024).
Like-named read-outs stand apart in the source and are kept apart here.

How the values were obtained:
Type in all cases: cell-based
HeLa MKYP cells [1] = assay: Human mitophagy assay (HeLa mKeima assay, FACS); conditions: read-out: Mitophagy induction EC50
In short: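 HeLa cells carrying the pH-sensitive mtKeima tag incubated 16 h with compound at several concentrations, then 1 uM FCCP/oligomycin for 6 h. FACS detects mitochondria in lysosomes through the Keima emission shift, quantified as percentage of cells in mitophagy.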

HeLa MKYP cells [2] = assay: Cell death measured by DAPI staining, with 1 μM FCCP/oligomycin or no toxin (no FO)
In short: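 HeLa MKYP cells were treated with compounds alongside 1 μM FCCP/oligomycin or no toxin for 6 or 6.5 h. Cell death was scored by DAPI staining, with H2O2 treatment as the death control.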

[3] = Mitotoxicity / Mitotox safety margin (therapeutic window)

Structure (SMILES)	EC50 (HeLa MKYP cells [1]; Homo sapiens, HeLa) [nM]	Highest safe dose (cytotoxicity; no FO; safe means DAPI+ <20%) (HeLa MKYP cells [2]) [µM]	Max % death with 1 μM FO (HeLa MKYP cells [2]) [%]	Mito-Safety Index (highest safe dose/EC50) [3]	Highest safe dose (μM) (mitotox or cytotox) [3] [µM]	EC50 (HeLa MKYP cells [1]) [nM]
Fc1ccc2c(c1)CC[C@H](N1C[C@H]3COC[C@H]3C1)[C@H]2Nc1ncnc2[nH]c(C3CC3)cc12 [EP-0040601]	190	25.0	45.3	55.12	10.3	–
Fc1ccc2c(c1)CC[C@H](N1C[C@@H]3COC[C@H]3C1)[C@H]2Nc1ncnc2[nH]c(C3CC3)cc12 [EP-0040669]	350	25.0	29.9	71.36	25.0	–
FC(F)(F)c1cc2c(NC3c4ccccc4OCC3N3C[C@@H]4COC[C@H]4C3)ncnc2[nH]1 (some centres unmarked) [EP-0040677]	320	25.0	11.1	77.08	25.0	–
FC(F)(F)c1cc2c(NC3c4ccccc4OCC3N3C[C@H]4COC[C@@H]4C3)ncnc2[nH]1 (some centres unmarked) [EP-0040678]	860	25.0	9.2	28.90	25.0	–
COC1CN([C@H]2CCc3ccccc3[C@@H]2Nc2ncnc3[nH]c(C(F)(F)F)cc23)C1 [EP-0040688]	310	8.3	82.1	26.96	8.3	–
Fc1ccc2c(c1)CC[C@H](N1C[C@H]3COC[C@@H]3C1)[C@H]2Nc1ncnc2[nH]c(C(F)(F)F)cc12 [EP-0040695]	100	25.0	20.7	89.34	9.1	–
COC1CN([C@H]2COc3ccccc3[C@@H]2Nc2ncnc3[nH]c(C(F)(F)F)cc23)C1 [EP-0040697]	–	8.3	57.6	15.51	8.3	540
COC1CN([C@H]2COc3ccccc3[C@@H]2Nc2ncnc3[nH]c(C4CC4)cc23)C1 [EP-0040702]	–	25.0	7.7	77.26	25.0	320
c1ccc2c(c1)CC[C@H](C1CCOCC1)[C@H]2Nc1ncnc2[nH]c(C3CC3)cc12 [EP-0040726]	20	25.0	20.5	100.89	2.1	–
c1ccc2c(c1)OC[C@@H](C1CCOCC1)[C@@H]2Nc1ncnc2[nH]c(C3CC3)cc12 [EP-0040729]	60	25.0	17.1	52.06	3.2	–
c1ccc2c(c1)CC[C@H](N1C[C@@H]3COC[C@H]3C1)[C@H]2Nc1ncnc2[nH]c(C3CC3)cc12 [EP-0040768]	50	25.0	33.1	57.75	3.0	–
COC1CN([C@H]2COc3ccccc3[C@@H]2Nc2ncnc3[nH]c(C4CC4)cc23)C1 [EP-0040847]	–	25.0	5.2	–	25.0	> 25000
COC1CN([C@@H]2COc3ccccc3[C@H]2Nc2ncnc3[nH]c(C4CC4)cc23)C1 [EP-0040848]	160	25.0	10.6	152.94	25.0	–
COC1CN([C@H]2COc3ccccc3[C@@H]2Nc2ncnc3[nH]c(C(F)(F)F)cc23)C1 [EP-0040849]	–	25.0	5.2	2.61	25.0	9590
C[C@@H]1CN([C@@H]2COc3ccccc3[C@H]2Nc2ncnc3[nH]c(C(F)(F)F)cc23)C[C@H](C)O1 [EP-0040943]	50	25.0	20.9	47.50	2.3	–
C[C@@H]1CN([C@H]2COc3ccccc3[C@@H]2Nc2ncnc3[nH]c(C4CC4)cc23)C[C@H](C)O1 [EP-0040944]	1220	25.0	6.3	20.51	25.0	–
C[C@@H]1CN([C@@H]2COc3ccccc3[C@H]2Nc2ncnc3[nH]c(C4CC4)cc23)C[C@H](C)O1 [EP-0040945]	40	25.0	18.4	27.95	1.2	–
C[C@@H]1CN([C@H]2COc3cc(F)ccc3[C@@H]2Nc2ncnc3[nH]c(C(F)(F)F)cc23)C[C@H](C)O1 [EP-0040946]	> 25000	–	4.8	–	25.0	–
C[C@@H]1CN([C@@H]2COc3cc(F)ccc3[C@H]2Nc2ncnc3[nH]c(C(F)(F)F)cc23)C[C@H](C)O1 [EP-0040947]	20	25.0	16.6	98.61	2.2	–
